{
  "source": "patent US5723465A",
  "about": "“Inhibitors for cell adhesion and cellular infiltration” (Kowa Co., Ltd., priority 1995, dated 1998)",
  "key": {"[1]": {"system": "infiltration of trachea by eosinocytes", "assay": "Inhibition of eosinocyte infiltration in a guinea pig asthma model", "assay_type": "in vivo, guinea pig (Hartley male)", "conditions": "6 successive days plus 2 hours after challenge, 24 h after, control 204.5 ± 15.3, blank 67.7 ± 7.2", "protocol": "In accordance with a method described by Terashi (Allergy, 37, 980-991 (1988)), groups of Hartley male guinea pigs, each group consisting of 4-7 animals (body weight: about 300 g), were exposed to chicken egg albumin (10 mg/ml) by way of inhalation using a ultrasonic nebulizer for 10 minutes a day for successive 9 days, to thereby create a sensitized state of the animals. From the following day, test compound 2 was intraperitoneally administered to each animal for successive 6 days (10 or 30 mg/kg). On day 7, metopyrone (10 mg/kg) and chlorphenylamine (10 mg/kg) were intraperitoneally administered to each animal. Thirty minutes later, each animal was exposed to chicken egg albumin (10 mg/ml) for 10 minutes by way of inhalation. In addition, 2 hours thereafter, test compound 2 was intraperitoneally administered to each animal. Twenty-four hours later, each animal was exsanguinated to death, and its trachea was removed. The trachea was fixed with formalin and embedded in paraffin, so as to prepare thin slice samples. The samples were subjected to luna staining, and eosinocytes that infiltrated were counted."}, "[2]": {"system": "lymphocyte infiltration (CD3 positive cells) in mouse contact dermatitis", "assay": "Lymphocyte infiltration inhibitory action in mouse contact dermatitis", "assay_type": "in vivo, mouse (ddy male)", "conditions": "6 successive days before induction, 24 h after picryl chloride; for Ear weight (difference in weight of both ears): control 4.9 ± 0.7; for Count of CD3 positive cells: control 10.8 ± 1.3", "protocol": "In accordance with a method described by Asherson et al. (Immunology, 15, 405-416 (1968)), action of the compound on lymphocyte infiltration in mouse contact dermatitis was investigated. Groups of ddy male mice that had been sensitized with picryl chloride, each group consisting of 10 animals (body weight: 28-32 g), were provided for the test. Test compound 2 was intraperitoneally administered to each animal for successive 6 days before induction took place (1 or 10 mg/kg). A 1% solution of picryl chloride-olive oil (0.02 ml) was applied to an ear of each animal. Twenty-four hours later, both ears were punched (7 mm.phi.), to thereby compute the difference in weight. The ears were then embedded in paraffin, frozen, and cut in a vertical direction with respect to the ear face to prepare thin slices each having a thickness of 4 μm. CD3 positive cells were immunostained and counted."}, "[3]": {"system": "leukocyte infiltration in rat carrageenin pleurisy", "assay": "Leukocyte infiltration inhibitory action in rat carrageenin pleurisy", "assay_type": "in vivo", "conditions": "2 successive days, 16 h after carrageenin; for Count of infiltrated cells: control 2.37 ± 0.06; for Pleural fluid volume: control 3.3 ± 0.3", "protocol": "In accordance with a method described by Kikuchi et al. (Japan J. Pharmacol., 39, 467-473 (1985)), action of the compound on leukocyte infiltration in rat carrageenin pleurisy was investigated. Groups of SD male […], each group consisting of 6 animals (7 weeks old), were provided for the test. Test compound 2 was intraperitoneally administered to each animal for successive 2 days (10 or 30 mg/kg). Two hours after the final administration, a 2% (w/v) carrageenin solution (0.1 ml) was intrathoracically administered. Sixteen hours later, each animal was exsanguinated to death, and pleural fluid was collected. The volume of the collected pleural fluid was measured, and cells that infiltrated and present in the pleural fluid were counted."}, "[4]": {"system": "mouse type II collagen arthritis", "assay": "Action on mouse type II collagen arthritis", "assay_type": "in vivo, mouse (DBA/1 male)", "conditions": "30 mg/kg intraperitoneally once daily, 10 times", "protocol": "The test was performed in accordance with a method described by Ranges et al. (J. Exp. Med., 162, 1105-1110 (1985)). To each of DBA/1 male mice (6-7 weeks old), 100 μg of type II collagen from bovine suspended in Freund's complete adjuvant was subcutaneously injected at the root of its tail. Twenty one days later, the mice was given a booster injection in a similar manner. The drug was intraperitoneally administered to each mouse once every day starting from 2 days prior to the booster injection until 7 days after the booster injection (a total of 10 times). The severity of arthritis was evaluated by measuring the thickness of the front foot pads. In addition, antibody titers (IgG+IgM) against type II collagen in serum were determined by ELISA."}, "[5]": {"system": "adhesion of U937 cells to human umbilical vein endothelial cells (HUVEC)", "assay": "Cell adhesion inhibitory effect: adhesion of U937 cells to IL-1β- or TNFα-stimulated HUVEC", "assay_type": "cell-based", "conditions": "0.75 h, 45 minutes adhesion at room temperature", "protocol": "The test was performed with reference to a method described by Ross et al (J. Biol. Chem., 267, 8537-8543 (1992)). Briefly, endothelial cells derived from the human umbilical code vein (HUVEC) were cultured in a 48-well plate until they became confluent. Subsequently, IL-1β or TNFα was added. Five hours after the addition, U937 cells which are derived from human monocytes/histiocytes and FITC-labeled with PKH2 (Dainippon Seiyaku) were added to each well in an amount of 3×10^5 cells per well. After being allowed to stand for 45 minutes at room temperature, U937 cells which had not been adhered to were washed off, and the remaining cells were lysed using 1% Triton X-100. Fluorescent intensity was measured (Exi. 494 nm, Emi. 504 nm). The HUVEC cells were cultured in EGM-UV (Kurabo Industries Ltd.), and U937 cells were cultured in RPMI1640 plus 10% FCS. Each test drug (compound) was added to HUVEC simultaneously with the addition of IL-1β or TNFα, or to U937 cells 24 hours before the cell adhesion test, to thereby study the effect of the compound. The inhibitory activity was determined by the following equation: […]\n(the number of drug-free U937 cells adhered to drug-free endothelial cells that have been stimulated with IL-1β or TNFα)--(the number of drug-free U937 cells adhered to drug-free endothelial cells that have not been stimulated with IL-1β or TNFα)=100%"}, "[6]": {"conditions": "10 mg/kg intraperitoneally, p <0.05"}, "[7]": {"conditions": "30 mg/kg intraperitoneally, p <0.01"}, "[8]": {"conditions": "IL-1β-stimulated HUVEC, read-out: Cell Adhesion (IC50), IL-1β Stimulation"}, "[9]": {"conditions": "TNFα-stimulated HUVEC, read-out: Cell Adhesion (IC50), TNFα Stimulation"}},
  "note": "Where two headings read alike, the source gives them in different places.",
  "data": [
    {"smiles": "COc1cc(/C=C/CCCN2CCCN(CCC/C=C/c3cc(OC)c(OC)c(OC)c3)CC2)cc(OC)c1OC", "note": "[Test Compound 2, N,N'-bis-((E)-5-(3,4,5-trimethoxyphenyl)-4-pentenyl)homopiperazine.2HCl]", "values": [
      {"measurement": "Infiltration of trachea by eosinocytes", "setting": "[1]; [6]", "result": "171.0 ± 6.5", "unit": "cells/mm"},
      {"measurement": "Infiltration of trachea by eosinocytes", "setting": "[1]; [7]", "result": "122.2 ± 7.0", "unit": "cells/mm"},
      {"measurement": "Ear weight (difference in weight of both ears)", "setting": "[2]; 1 mg/kg intraperitoneally", "result": "4.5 ± 0.8", "unit": "mg/7 mm.phi."},
      {"measurement": "Count of CD3 positive cells", "setting": "[2]; 1 mg/kg intraperitoneally, p <0.05", "result": "7.8 ± 0.4", "unit": "cells/mm"},
      {"measurement": "Ear weight (difference in weight of both ears)", "setting": "[2]; [6]", "result": "2.9 ± 0.6", "unit": "mg/7 mm.phi."},
      {"measurement": "Count of CD3 positive cells", "setting": "[2]; 10 mg/kg intraperitoneally, p <0.01", "result": "4.2 ± 0.7", "unit": "cells/mm"},
      {"measurement": "Count of infiltrated cells", "setting": "[3]; 10 mg/kg intraperitoneally", "result": "1.97 ± 0.05 × 10^8"},
      {"measurement": "Pleural fluid volume", "setting": "[3]; 10 mg/kg intraperitoneally", "result": "2.5 ± 0.3", "unit": "mL"},
      {"measurement": "Count of infiltrated cells", "setting": "[3]; [7]", "result": "1.68 ± 0.22 × 10^8"},
      {"measurement": "Pleural fluid volume", "setting": "[3]; 30 mg/kg intraperitoneally, p <0.05", "result": "2.5 ± 0.3", "unit": "mL"},
      {"measurement": "Thickness of front foot pad, after 30 days", "setting": "[4]; after 30 days, control 421.3 ± 13.1, blank 361.0 ± 4.2, p <0.05", "result": "384.8 ± 6.9 × 10^-2 mm"},
      {"measurement": "Antibody titer against collagen (IgG + IgM), after 33 days", "setting": "[4]; serum, ELISA, after 33 days, control 1.00 ± 0.13, blank 0 ± 0.00, p <0.01", "result": "0.43 ± 0.10 percentage with respect to the"}
    ]},
    {"smiles": "COc1cc(/C=C\\CCCN2CCCN(CCC/C=C\\c3cc(OC)c(OC)c(OC)c3)CC2)cc(OC)c1OC", "note": "[compound 1]", "values": [
      {"measurement": "IC50", "setting": "[5]; [8]", "result": 9.7, "unit": "µM"},
      {"measurement": "IC50", "setting": "[5]; [9]", "result": 8, "unit": "µM"}
    ]},
    {"smiles": "COc1cc(/C=C/CCCN2CCCN(CCC/C=C/c3cc(OC)c(OC)c(OC)c3)CC2)cc(OC)c1OC", "note": "[compound 2]", "values": [
      {"measurement": "IC50", "setting": "[5]; [8]", "result": 9, "unit": "µM"},
      {"measurement": "IC50", "setting": "[5]; [9]", "result": 9.5, "unit": "µM"}
    ]},
    {"smiles": "COc1ccccc1/C=C/CN1CCN(C/C=C/c2ccccc2OC)CC1", "note": "[compound 3]", "values": [
      {"measurement": "IC50", "setting": "[5]; [8]", "result": 3.4, "unit": "µM"},
      {"measurement": "IC50", "setting": "[5]; [9]", "result": 12.9, "unit": "µM"}
    ]},
    {"smiles": "COc1ccc(/C=C/CCCN2CCN(CCC/C=C/c3ccc(OC)cc3)CC2)cc1", "note": "[compound 4]", "values": [
      {"measurement": "IC50", "setting": "[5]; [8]", "result": 11.1, "unit": "µM"},
      {"measurement": "IC50", "setting": "[5]; [9]", "result": 9.4, "unit": "µM"}
    ]}
  ]
}
